Results published in patent US10906890B2, “Triazole phenyl compounds as agonists of the APJ receptor” (AMGEN INC., priority 2016, dated 2021).

Molecular target: human APJ receptor (Homo sapiens (Human), UniProt P35414)
Experiment: [35S]GTPγS binding assay on membranes from CHO cells stably expressing human APJ receptor
Format: biochemical
Details: means of several independent experiments, read-out: Activity hAPJ SPA EC50 IP
Protocol: The human APJ receptor was cloned by polymerase chain reaction and the gene encoding the receptor was subcloned in pFLAG-CMV™-3 expression vector (Sigma, Saint Louis, Mo. USA) in-house at Amgen. A GTPγS binding assay was performed on membranes prepared from CHO cells stably expressing human APJ receptor. The optimum experimental conditions for the concentrations of GDP, MgCl2, and NaCl in the assay buffer were initially determined. […] Incubation was at RT for 90 min and the microplate was read using a ViewLux™ ultra HTS Microplate Imager (PerkinElmer, Inc.). All the results presented are means of several independent experiments and analyzed by non-linear regression methods using the commercially available program Prism (GraphPad, San Diego, Calif.) providing the EC50 values detailed in Table 28.

Sequence of human APJ receptor (P35414 whole entry): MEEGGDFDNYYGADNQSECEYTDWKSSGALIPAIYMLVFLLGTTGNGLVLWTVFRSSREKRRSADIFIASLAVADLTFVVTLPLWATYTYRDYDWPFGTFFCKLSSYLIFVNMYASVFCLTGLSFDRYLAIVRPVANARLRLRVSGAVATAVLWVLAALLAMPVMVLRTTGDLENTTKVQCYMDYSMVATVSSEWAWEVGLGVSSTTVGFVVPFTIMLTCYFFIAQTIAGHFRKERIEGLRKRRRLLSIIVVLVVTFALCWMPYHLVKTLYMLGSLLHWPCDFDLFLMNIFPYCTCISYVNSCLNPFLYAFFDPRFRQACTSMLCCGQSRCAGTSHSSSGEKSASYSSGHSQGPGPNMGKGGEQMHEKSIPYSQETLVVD

SMILES | EC50 [nM]
COc1cccc(OC)c1-n1c(NS(=O)(=O)[C@@H](C)[C@H](C)c2cnc(C)cn2)nnc1-c1ccccc1 [Example 25.0, (2S,3R)-N-(4-(2,6-dimethoxyphenyl)-5-phenyl-4H-1,2,4-triazol-3-yl)-3-(5-methyl-2-pyrazinyl)-2-butanesulfonamide] | 1.3
COc1ncnc(OC)c1-n1c(NS(=O)(=O)[C@@H](C)[C@H](C)c2cnc(C)cn2)nnc1-c1ccccc1 [Example 26.0, (2S,3R)-N-(4-(4,6-dimethoxy-5-pyrimidinyl)-5-phenyl-4H-1,2,4-triazol-3-yl)-3-(5-methyl-2-pyrazinyl)-2-butanesulfonamide] | 5.2
CO[C@H]1CCC[C@@H](OC)[C@@H]1n1c(NS(=O)(=O)[C@@H](C)[C@H](C)c2ncc(C)cn2)nnc1-c1ccccc1 [Example 33.0, (2S,3R)—N-(4-((1r,2R,6S)-2,6-Dimethoxycyclohexyl)-5-phenyl-4H-1,2,4-triazol-3-yl)-3-(5-methyl-2-pyrimidinyl)-2-butanesulfonamide] | 230
COc1ccnc(OC)c1-n1c(NS(=O)(=O)[C@@H](C)[C@H](OC)c2ncc(C)cn2)nnc1-c1ccccc1 [Example 36.0, (1R,2S,P)-N-(4-(2,4-dimethoxy-3-pyridinyl)-5-phenyl-4H-1,2,4-triazol-3-yl)-1-methoxy-1-(5-methyl-2-pyrimidinyl)-2-propanesulfonamide and (1R,2S,S)-N-(4-(2,4-dimethoxy-3-pyridinyl)-5-phenyl-4H-1,2,4-triazol-3-yl)-1-methoxy-1-(5-methyl-2-pyrimidinyl)-2-propanesulfonamide] | 1.9
COc1cccc(OC)c1-n1c(NS(=O)(=O)[C@@H](C)[C@H](OC)c2ncc(C)cn2)nnc1-c1ccc2c(c1)OC(F)(F)O2 [Example 39.0, (1R,2S)-N-(5-(2,2-difluoro-1,3-benzodioxol-5-yl)-4-(2,6-dimethoxyphenyl)-4H-1,2,4-triazol-3-yl)-1-methoxy-1-(5-methyl-2-pyrimidinyl)-2-propanesulfonamide] | 160
Cc1cnc([C@@H](C)[C@H](C)S(=O)(=O)Nc2nnc(-c3ccccc3)n2-c2c(F)cccc2F)nc1 [Example 40.0, (2S,3R)-N-(4-(2,6-difluorophenyl)-5-phenyl-4H-1,2,4-triazol-3-yl)-3-(5-methyl-2-pyrimidinyl)-2-butanesulfonamide] | 4.4
CO[C@H](c1ncc(C)cn1)[C@H](C)S(=O)(=O)Nc1nnc(-c2ccccc2)n1-c1c(F)cccc1F [Example 41.0, (1R,2S)-N-(4-(2,6-difluorophenyl)-5-phenyl-4H-1,2,4-triazol-3-yl)-1-methoxy-1-(5-methyl-2-pyrimidinyl)-2-propanesulfonamide] | 4.7
Cc1cnc([C@H](OC(C)C)[C@H](C)S(=O)(=O)Nc2nnc(-c3ccccc3)n2-c2c(F)cccc2F)nc1 [Example 42.0, (1S,2S)-N-(4-(2,6-difluorophenyl)-5-phenyl-4H-1,2,4-triazol-3-yl)-1-(1-methylethoxy)-1-(5-methyl-2-pyrimidinyl)-2-propanesulfonamide] | 3.4
Cc1cnc([C@@H](O[Si](C)(C)C(C)(C)C)[C@H](C)S(=O)(=O)Nc2nnc(-c3ccccc3)n2-c2c(F)cccc2F)nc1 [Example 44.0, (1R,2S)-1-((tert-butyl(dimethyl)silyl)oxy)-N-(4-(2,6-difluorophenyl)-5-phenyl-4H-1,2,4-triazol-3-yl)-1-(5-methyl-2-pyrimidinyl)-2-propanesulfonamide] | 150
Cc1cnc([C@@H](O)[C@H](C)S(=O)(=O)Nc2nnc(-c3ccccc3)n2-c2c(F)cccc2F)nc1 [Example 45.0] | 34
C[C@H](c1ncc(Cl)cn1)[C@H](C)S(=O)(=O)Nc1nnc(-c2ccccc2)n1-c1c(F)cccc1F [Example 46.0, (2S,3R)-3-(5-chloro-2-pyrimidinyl)-N-(4-(2,6-difluorophenyl)-5-phenyl-4H-1,2,4-triazol-3-yl)-2-butanesulfonamide] | 1.7
C[C@H](c1ncc(C#N)cn1)[C@H](C)S(=O)(=O)Nc1nnc(-c2ccccc2)n1-c1c(F)cccc1F [Example 47.0, (2S,3R)-3-(5-cyano-2-pyrimidinyl)-N-(4-(2,6-difluorophenyl)-5-phenyl-4H-1,2,4-triazol-3-yl)-2-butanesulfonamide] | 48
COc1ncnc(OC)c1-n1c(NS(=O)(=O)[C@@H](C)[C@H](C)c2ncc(C)cn2)nnc1-c1cccc(C(F)(F)F)c1 [Example 48.0] | 23
COc1ncnc(OC)c1-n1c(NS(=O)(=O)[C@@H](C)[C@H](C)c2ncc(C)cn2)nnc1-c1cccc(C#N)c1 [Example 50.0, (2S,3R)-N-(5-(3-cyanophenyl)-4-(4,6-dimethoxy-5-pyrimidinyl)-4H-1,2,4-triazol-3-yl)-3-(5-methyl-2-pyrimidinyl)-2-butanesulfonamide] | 110
COc1cccc(OC)c1-n1c(NS(=O)(=O)c2cncc(Br)c2)nnc1-c1ccccc1 [Example 60.0, 5-bromo-N-(4-(2,6-dimethoxyphenyl)-5-phenyl-4H-1,2,4-triazol-3-yl)-3-pyridinesulfonamide] | 350
C[C@H](c1ncc(Cl)cn1)[C@H](C)S(=O)(=O)Nc1nnc(-c2ccccc2)n1C1CCOCC1 [Example 61.0, (2S,3R)-3-(5-chloro-2-pyrimidinyl)-N-(5-phenyl-4-(tetrahydro-2H-pyran-4-yl)-4H-1,2,4-triazol-3-yl)-2-butanesulfonamide] | 69
CO[C@H](c1ncc(Cl)cn1)[C@H](C)S(=O)(=O)Nc1nnc(-c2ccccc2)n1C1CCOCC1 [Example 62.0, (1R,2S)-1-(5-chloro-2-pyrimidinyl)-1-methoxy-N-(5-phenyl-4-(tetrahydro-2H-pyran-4-yl)-4H-1,2,4-triazol-3-yl)-2-propanesulfonamide] | 74
Cc1cnc([C@H](OC(C)C)[C@H](C)S(=O)(=O)Nc2nnc(-c3ccccc3)n2C2CCOCC2)nc1 [Example 63.0, (1S,2S)-1-(1-methylethoxy)-1-(5-methyl-2-pyrimidinyl)-N-(5-phenyl-4-(tetrahydro-2H-pyran-4-yl)-4H-1,2,4-triazol-3-yl)-2-propanesulfonamide] | 420
COc1cccc(OC)c1-n1c(NS(=O)(=O)[C@@H](C)[C@H](OC)c2ncc(C)cn2)nnc1-c1ccc(C(C)(C)C)cc1 [Example 65.0, (1R,2S)—N-(5-(4-tert-Butylphenyl)-4-(2,6-dimethoxyphenyl)-4H-1,2,4-triazol-3-yl)-1-methoxy-1-(5-methyl-2-pyrimidinyl)-2-propanesulfonamide] | 230
COc1cccc(OC)c1-n1c(NS(=O)(=O)[C@@H](C)[C@H](OC)c2ncc(C)cn2)nnc1-c1ccc2c(c1)OCO2 [Example 66.0, (1R,2S)-N-(5-(1,3-benzodioxol-5-yl)-4-(2,6-dimethoxyphenyl)-4H-1,2,4-triazol-3-yl)-1-methoxy-1-(5-methyl-2-pyrimidinyl)-2-propanesulfonamide] | 0.73
COc1cccc(OC)c1-n1c(NS(=O)(=O)[C@@H](C)[C@H](OC)c2ncc(C)cn2)nnc1-c1ccccc1F [Example 67.0, (1R,2S)-N-(4-(2,6-dimethoxyphenyl)-5-(2-fluorophenyl)-4H-1,2,4-triazol-3-yl)-1-methoxy-1-(5-methyl-2-pyrimidinyl)-2-propanesulfonamide] | 5.9
